Key:
[1] = Partition coefficients (Log D) for 64Cu complexes; type: physicochemical; settings: 64Cu complex of the listed ligand
[2] = tested on: Aβ plaques; experiment: Fluorescence staining of human AD brain tissue sections, co-localisation with 1E8 immunostaining; type: binding; settings: post-mortem AD human brain, 7 μm serial sections, BSA pre-treated
Excerpt: Fluorescence Staining of Human AD Brain. Tissues(^10) Paraffin preserved brain tissue blocks were provided by the Victoria Brain Bank Network. Brain tissue was collected at autopsy. The National Neural Tissue Resource Centre performed Sourcing and preparation of human brain tissue. AD pathologic diagnosis was made according to standard National Institute on Aging-Reagan Institute criteria. Determination of age-matched Human control (HC) cases was subject to the above criteria. The AD and HC brain tissues sections ([…]) were first de-paraffined (xylene, 3×2 min) followed by rehydration (soaking in a series of 100%, 90%, 70% and 0% v/v ethanol/di water). The hydrated tissue sections were washed in phosphate buffer saline (PBS, 5 min). Auto-fluorescence of the tissue was quenched using potassium permanganate (0.25% in PBS, 20 min) and washing with PBS (2×2 min) to remove the excess. […] Finally, the sections were washed with PBS (3×2 min), di water and mounted with non-fluorescent mounting media (Dako), Fluorescence images were visualised using a Leica (Bannockburn, Ill.) DM1RB microscope. […] The tissue was subsequently examined by fluorescent microscopy (epi-fluorescence, λex=420 nm, λex=470 nm) and compared to a sequential brain tissue cross section immunostained with an Aβ antibody (1 E8). […]

[3] = Cyclic voltammetry, Cu(II)/Cu(I) reduction potential; type: physicochemical; settings: vs. SCE, in DMF, glassy carbon electrode
Method: Cyclic voltammograms were recorded using an AUTOLAB PGSTAT100 equipped with GPES V4.9 software. Measurements of the complexes were carried out at approximately 1×10^−3 M in dimethylformamide with tetrabutylammonium tetrafluoroborate (1×10^−1 M) as electrolyte using a glassy carbon disk (d, 3 mm) working electrode, a Pt wire counter/auxiliary electrode, and a Ag/Ag^+ pseudo reference electrode (silver wire in H2O (KCl (0.1 M)) AgNO3 (0.01 M)). Ferrocene was used as an internal reference (Em(Fc/Fc^+)=0.54 V vs. SCE), where Em refers to the midpoint between a reversible reductive (Epc) and oxidative (Epa) couple, given by Em=(Epc+Epa)/2. Irreversible systems are only given reductive (Epc) and oxidative (Epa) values, respectively.

Structure (SMILES): CNC(S)=NN=C(C)C(C)=NN=C(S)NC [atsmH2a]
- Log D of complex [1]: 1.48

Structure (SMILES): CC(=N\NC(=S)NCCN(C)C)/C(C)=N/Nc1ccc(/C=C/c2ccc(N(C)C)cc2)cn1 [Example H2L3, Diacetyl-2-((E)-2-hydrazino-pyridinyl-4-(4′-N,N-dimethylaminostilbene))-(4-dimethylaminoethyl-3-thiosemicarbazone)]
- binding to Aβ plaques (co-localisation of epi-fluorescence with 1E8 antibody immunostaining) [2]: binding selectively to Aβ plaques

Structure (SMILES): CN=C([S-])N/N=C(C)/C(C)=N/NC([S-])=NC.[Cu+2] [CuII (atsm)]
- reduction potential Em (Cu^II/Cu^I couple) [3]: −0.59 V
